# Reference: patent US7078499B2, “Nucleotide analogues comprising a reporter moiety and a polymerase enzyme blocking moiety” (GE Healthcare UK Limited, priority 2000, dated 2006)
# Target: T1, leucine aminopeptidase (Sus scrofa, UniProt P15145)
# T1 construct: purchased Sigma L0632
# Assay: Enzyme cleavage of 4′ blocking group by leucine aminopeptidase
# Assay type: biochemical
# Settings: 0.25 units leucine aminopeptidase, 37° C., 47 mM sodium phosphate pH 7.2, 3.3% methanol
# Method: 1 mg of 4′-C-(N-Leucylaminomethyl)thymidine (21) is incubated at 37° C. in 47 mM sodium phosphate pH 7.2 with 3.3% methanol and 0.25 units leucine aminopeptidase (Sigma L0632), to a final volume of 200 ul.
# The products resulting from a), b) or c) above are analysed by thin layer chromatography using reverse phase plates with 10% acetonitrile in water or by electrospray mass spectrometry. Successful cleavage reactions yield nucleosides running concurrently with 4′-aminomethylthymidine which is used as a standard.
# T1 sequence (P15145 whole entry): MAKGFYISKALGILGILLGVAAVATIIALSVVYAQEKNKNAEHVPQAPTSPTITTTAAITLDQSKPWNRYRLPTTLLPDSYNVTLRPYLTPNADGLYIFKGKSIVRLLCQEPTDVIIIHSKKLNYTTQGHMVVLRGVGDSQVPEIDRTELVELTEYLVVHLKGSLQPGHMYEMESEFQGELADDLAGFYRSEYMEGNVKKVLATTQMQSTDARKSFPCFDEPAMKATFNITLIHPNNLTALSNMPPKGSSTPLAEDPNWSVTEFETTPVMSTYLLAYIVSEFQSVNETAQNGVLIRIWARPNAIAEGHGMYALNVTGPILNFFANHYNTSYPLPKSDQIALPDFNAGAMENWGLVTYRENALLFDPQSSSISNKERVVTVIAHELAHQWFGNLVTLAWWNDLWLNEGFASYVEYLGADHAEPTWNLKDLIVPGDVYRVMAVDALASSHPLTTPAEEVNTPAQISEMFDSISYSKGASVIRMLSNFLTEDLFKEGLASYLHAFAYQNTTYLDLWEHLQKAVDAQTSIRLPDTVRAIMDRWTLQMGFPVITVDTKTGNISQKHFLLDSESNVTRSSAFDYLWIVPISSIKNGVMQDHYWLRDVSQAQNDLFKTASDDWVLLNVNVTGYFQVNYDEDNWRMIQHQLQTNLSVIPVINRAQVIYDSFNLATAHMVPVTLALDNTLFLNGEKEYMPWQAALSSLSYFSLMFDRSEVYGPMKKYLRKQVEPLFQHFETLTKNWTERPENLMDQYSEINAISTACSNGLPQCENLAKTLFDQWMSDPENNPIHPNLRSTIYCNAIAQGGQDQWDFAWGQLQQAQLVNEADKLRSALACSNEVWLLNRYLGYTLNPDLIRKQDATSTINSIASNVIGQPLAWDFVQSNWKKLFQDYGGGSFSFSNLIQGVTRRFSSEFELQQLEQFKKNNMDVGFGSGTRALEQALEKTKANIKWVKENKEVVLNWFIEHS
structure (smiles),measurement,value
"Cc1cn([C@H]2C[C@H](O)[C@](CO)(CNC(=O)[C@@H](N)CC(C)C)O2)c(=O)[nH]c1=O [compound (21), 4′-C-(N-Leucylaminomethyl)thymidine]",cleavage of 4′ blocking group (mass spectrometric detection of daughter ion mass 242),enzyme induced cleavage of the amino acid
